Assay results as given in US20260041089A1, “PLANT BIOSTIMULANT AND METHODS OF MAKING AND USING SAME” (Solugen, Inc., priority 2022, published 2026).
Several values for one entry are separate records, joined by “and”; a condition that tells them apart may be missing. Equal entries are not always repeated.

Tested on: microgreens
Assay: Radish microgreens growth under controlled pH 5, 1% solutions (Example 2)
Format: in vivo
Details: for germination rate / root hair development: Day 2; for Plant dry weight: harvest Day 8, dried 3 days
Protocol: The biostimulant effect of a PBC under controlled pH and composition conditions was investigated. Particularly, a second batch of testing was performed to verify that biostimulant effect observed in Example 1 was not an artifact of differing pH or composition. In this set, samples having a controlled yet differing compositions were compared. The first sample set comprised the sugar sucrose while the second sample comprised citric acid. Citric acid was reported to promote seed germination, all under the same pH. Therefore, solutions of 1% citric acid, sucrose, and a PBC were prepared and adjusted to a pH of 5. Two pots were filled with 150 g of each solution. About 200 seeds were placed on top of each soaked growing mats. This second batch was left indoors at room temperature for 8 days.
Microgreens were harvested on Day 8. They were then dried for 3 days, and the dry weights were recorded.

[1] = 1% solution, pH 5, harvest Day 8

In the case of `O=C(O)CC(O)(CC(=O)O)C(=O)O` [Citric Acid, citric acid], the germination rate (1% solution, pH 5) was 100%, the “Length of Root” value [1] was 0.82 ± 0.25 cm and 0.71 ± 0.22 cm and the Plant dry weight (1% solution, pH 5) was 1.99 g and 1.81 g. The “overall growth at harvest (Table 2 summary)” value (1 wt. %, Day 8) was “least overall growth in every parameter considered”, the root hair development was “minimal root hair development” and the growth observation (Day 4) was “stunted growth with no stem or root hair development”. For the same molecule, the growth observation (Day 7) was “no stem development and poor overall growth”.

With `OC[C@H]1O[C@@](CO)(O[C@H]2O[C@H](CO)[C@@H](O)[C@H](O)[C@H]2O)[C@@H](O)[C@@H]1O` [Sucrose, sucrose] the germination rate (1% solution, pH 5) was 99%, the “Length of Root” value [1] was 2.61 ± 0.43 cm and 2.49 ± 1.0 cm and the “Length of Stem” value [1] was 3.86 ± 1.10 cm and 4.27 ± 1.03 cm. The Plant dry weight (1% solution, pH 5) was 3.0 g and 2.29 g, the root hair development was “most root hair development” and the leaf development (Day 3) was “most leaf development”. The growth observation (Day 7) was “healthy leaf growth”.
